According to ChEMBL document CHEMBL1121978, “Ultra-short-acting beta-adrenergic receptor blocking agents. 2. (Aryloxy)propanolamines containing esters on the aryl function” (J Med Chem, 1982):
Activity calls are given as the source filed them. The calls are words filed in the database; no cut-off is given here.

Key:
[1] = target: Beta-1 adrenergic receptor (Canis lupus familiaris) (UniProt P79148)
[2] = target: Beta-1 adrenergic receptor (Cavia porcellus) (UniProt B0FL73); assay: The compound was tested in vitro for its ability to block Beta-1 adrenergic receptor in guinea pig right atria preparation at 10e-5M; inactive
[3] = target: Beta-1 adrenergic receptor (Cavia porcellus) (UniProt B0FL73); assay: Cardioselectivity expressed as antilog of pA2 (atria)-pA2 (trachea).
[4] = target: Beta-1 adrenergic receptor (Canis lupus familiaris) (UniProt P79148); remark: listed apart in the source
[5] = target: Beta-1 adrenergic receptor (Cavia porcellus, UniProt B0FL73); assay: The compound was tested in vitro for its ability to block Beta-1 adrenergic receptor in guinea pig right atria preparation; conditions: read-out: pA2 (converted)
[6] = target: Beta-1 adrenergic receptor (Cavia porcellus) (UniProt B0FL73)
Description: The compound was tested in vivo for its ability to block beta-1-adrenergic receptor in guinea pig right atria preparation at a duration of 3h

Beta-1 adrenergic receptor, sequence (B0FL73 whole entry): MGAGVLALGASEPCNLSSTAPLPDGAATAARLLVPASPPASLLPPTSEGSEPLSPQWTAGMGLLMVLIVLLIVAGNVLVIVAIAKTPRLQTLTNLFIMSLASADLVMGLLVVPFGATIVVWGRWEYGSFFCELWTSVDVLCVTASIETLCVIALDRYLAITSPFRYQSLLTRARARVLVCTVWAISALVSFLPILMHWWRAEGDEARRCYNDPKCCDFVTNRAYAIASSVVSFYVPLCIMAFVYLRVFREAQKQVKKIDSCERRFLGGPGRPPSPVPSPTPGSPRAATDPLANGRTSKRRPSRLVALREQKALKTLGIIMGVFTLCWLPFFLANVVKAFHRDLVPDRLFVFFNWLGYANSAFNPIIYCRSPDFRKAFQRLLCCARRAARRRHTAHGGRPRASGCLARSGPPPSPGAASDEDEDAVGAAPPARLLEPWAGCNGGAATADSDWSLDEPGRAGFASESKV
Beta-1 adrenergic receptor (Cavia porcellus), sequence (B0FL73 1-467): as the sequence (B0FL73 whole entry) above

Row | SMILES | In vivo duration [1] [min] | In vivo duration [4] [min] | other results
1 | COC(=O)CCc1ccccc1OCC(O)CNC(C)C (stereo not drawn) | 29 |  | 
2 | COC(=O)c1ccccc1OCC(O)CNCCc1ccc(OC)c(OC)c1 (stereo not drawn) | 30 |  | 
3 | CC(C)NCC(O)COc1ccc(C(=O)O)cc1 (stereo not drawn) |  |  | pA2 [2]: inactive
4 | COC(=O)CCc1ccc(OCC(O)CNCCCc2ccccc2)cc1 (stereo not drawn) |  |  | Cardio selectivity [3]: 20
5 | CCOC(=O)c1ccccc1OCC(O)CNC(C)(C)C (stereo not drawn) | 38 |  | 
6 | COC(=O)CCc1ccc(OCC(O)CNC(C)(C)C)cc1 (stereo not drawn) | 15 |  | 
7 | C=COC(=O)c1ccc(OCC(O)CNC(C)C)cc1 (stereo not drawn) |  |  | Kb [5]: 501 nM; Cardio selectivity [3]: 5
8 | COC(=O)c1ccc(OCC(O)CNC(C)(C)C)cc1 (stereo not drawn) |  | 22 | 
9 | COC(=O)c1ccccc1OCC(O)CNC(C)(C)CO (stereo not drawn) | 55 |  | 
10 | COC(=O)CCc1ccc(OCC(O)CNCCc2ccc(OC)c(OC)c2)cc1 (stereo not drawn) | 14 |  | Cardio selectivity [3]: 20
11 | C=COC(=O)c1ccccc1OCC(O)CNC(C)C (stereo not drawn) |  |  | Kb [5]: 12.6 nM
12 | COC(=O)c1ccccc1OCC(O)CNC(C)(C)C (stereo not drawn) | 22 | 12 | 
13 | C=COC(=O)c1cccc(OCC(O)CNC(C)C)c1 (stereo not drawn) |  |  | In vivo duration [6]: > 60 min; Kb [5]: 126 nM
14 | COC(=O)c1ccc(OCC(O)CNC(C)C)cc1 (stereo not drawn) |  | 31 | 

Second part, led by results:

Row | In vivo duration [1] [min] | In vivo duration [4] [min] | SMILES | other results
15 | 15 | 15 | COC(=O)c1ccccc1OCC(O)CNC(C)C (stereo not drawn) | 
16 |  | 61 | CC(=O)Nc1ccc(OCC(O)CNC(C)C)cc1 (stereo not drawn) | 
17 | 12 | 12 | COC(=O)CCc1ccc(OCC(O)CNC(C)C)cc1 (stereo not drawn) | 
18 |  | 56 | CCOC(=O)c1ccc(OCC(O)CNC(C)C)cc1 (stereo not drawn) | 
19 | > 60 | 40 | COC(=O)CCCc1ccc(OCC(O)CNC(C)C)cc1 (stereo not drawn) | Cardio selectivity [3]: 13
20 | 43 |  | CCOC(=O)CCc1ccc(OCC(O)CNC(C)C)cc1 (stereo not drawn) | Cardio selectivity [3]: 30
21 | > 60 | 20 | COC(=O)Cc1ccc(OCC(O)CNC(C)C)cc1 (stereo not drawn) | 
22 | > 60 |  | COC(=O)/C=C/c1ccc(OCC(O)CNC(C)C)cc1 (stereo not drawn) | Cardio selectivity [3]: 18
